This passage reports GI50 and TGI results from PubChem BioAssay (NCI).

What all share (test): inhibition of tumour cell growth, NCI panel, 48 h
Experiment [1] has as its system SK-OV-3 ovarian.
The subject of experiment [2] is M14 melanoma.
For experiment [3], the system named is MCF7 breast.
The subject of experiment [4] is PC-3 prostate.
Experiment [5] has as its system SN12C renal.
Experiment [6] relates to OVCAR-4 ovarian.
For experiment [7], the system named is A549 NSCLC.
The subject of experiment [8] is HT29 colon.
Experiment [9] relates to LOX IMVI melanoma.
Experiment [10] relates to UACC-257 melanoma.

Where “and” joins values, the source holds several entries; their conditions need not be identical. Identical values can stand only once.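 Protocol summary: plate cells (96-well), add compound at 5 concentrations, incubate 48 h, interpolate endpoints linearly. At the GI50, growth is halved. TGI denotes the concentration required for complete inhibition of growth.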

As to `C=C(c1ccc(C(=O)NCCCn2ccnc2)cc1)c1cc2c(cc1C)C(C)(C)CCC2(C)C`, the GI50 is 2.09 µM in experiment [1]; 0.0627 µM in [2]; 1.25 µM in experiment [3]; 0.158 µM in experiment [4]; less than 0.0195 µM in experiment [5]; 4.1 µM in experiment [6]. For the same compound, the GI50 in experiment [7] is 1.14 µM; in experiment [8] it was 0.509 µM; in experiment [9], 0.395 µM. The TGI in experiment [1] was 5.59 µM; in experiment [2], 2.04 µM; in experiment [3] it was 13.8 µM; in experiment [4], more than 51.7 µM; in experiment [5], 10.8 µM; in [6], 26 µM. Besides, the TGI in experiment [7] is 16.4 µM; in experiment [8], 6.8 µM; in experiment [9], 4.48 µM; in experiment [10] it was 7.53 µM.

Take `C#CCN(CCCOc1ccc(Cl)cc1Cl)CCCSC(=O)CCCCCN1/C(=C\C=C2/CCCC(/C=C/C3=[N+](CCCCCC(=O)[O-])c4ccccc4C3(C)C)=C2Cl)C(C)(C)c2ccccc21`: the GI50 in [1] was 2.97 µM; in experiment [2] it was 1.61 µM; in experiment [3], 1.24 µM; in [4] it was 1.69 µM; in [5], 0.587 µM; in experiment [6], 2.02 µM. Also, the GI50 in experiment [7] is 3.22 µM; in experiment [8] it was 2.49 µM; in experiment [9] it was 1.46 µM; in experiment [10], 1.8 µM. For the same compound, the TGI in [1] stood at 8.86 µM; in experiment [2], 3.36 µM; in experiment [3], 3.53 µM; in experiment [4], 4.01 µM; in experiment [5] it was 2.74 µM; in experiment [6] it was 6.72 µM. In addition, the TGI in [7] was found to be 13.2 µM; in experiment [8], 6.47 µM; in experiment [9], 2.83 µM; in experiment [10] it was 4.03 µM.

Consider `COc1ccc(C2=NOC3=c4ccccc4=CSC3=C2c2ccccc2)cc1`, for which the GI50 in [1] is more than 100 µM; in experiment [2] it was 26.3 µM; in experiment [3] it was 24.2 µM; in [4], 20.5 µM; in experiment [5], 22 µM; in experiment [6] it was 49.7 µM. In addition, the GI50 in experiment [7] was more than 100 µM; in [8], 37.1 µM; in [9], 44.8 µM; in experiment [10], 69.6 µM. Also, the TGI is more than 100 µM in experiment [1]; more than 100 µM in experiment [2]; 62.9 µM in [3]; more than 100 µM in [4]; 68.9 µM in [5]; more than 100 µM in experiment [6]. Moreover, the TGI in experiment [7], in experiment [8], in experiment [9] and in experiment [10] was more than 100 µM each time.

For `CN(Cc1cnc2nc(N)nc(N)c2n1)c1c(Cl)cc(C(=O)NC(CCC(=O)O)C(=O)O)cc1Br` (stereo not drawn), the GI50 in experiment [1] is 0.0595 µM; in experiment [2], less than 0.01 µM; in experiment [3], less than 0.01 µM; in experiment [4], less than 0.01 µM; in [5], less than 0.01 µM; in [6], more than 100 µM. The GI50 in experiment [7], in [8] and in experiment [9] was less than 0.01 µM in each case. Moreover, the TGI is more than 100 µM in [1]; more than 100 µM in experiment [2]; more than 100 µM in experiment [3]; more than 80.1 µM in experiment [4]; more than 100 µM in [5]; more than 100 µM in experiment [6]. For the same compound, the TGI in [7], in experiment [8], in experiment [9] and in experiment [10] was more than 100 µM each time.

Consider `CC(C)OC(=O)c1cc(NC(=S)OC(C)C)ccc1Cl`, for which the TGI in [1] is more than 62.6 µM; in experiment [2] it was more than 79.6 µM; in experiment [3], more than 53 µM; in experiment [4], 50.9 µM; in experiment [5], 34.4 µM; in [6] it was more than 56 µM. Besides, the TGI was more than 66.8 µM in experiment [7], 38.6 µM in experiment [8], 31.2 µM in [9] and 50.9 µM in [10].

As for `c1ccc2[nH]c(-c3cscn3)nc2c1`, the TGI in experiment [1], in experiment [2], in experiment [3], in experiment [4], in [5] and in [6] was more than 100 µM each time. For the same compound, the TGI in experiment [7], in experiment [8], in experiment [9] and in experiment [10] was more than 100 µM each time.

Take `CN1CCC(C(=O)Nc2n[nH]c3nnc(-c4ccccc4)cc23)CC1`: the GI50 is 16.6 µM in [1]; more than 25 µM in experiment [2]; 10.2 µM in experiment [3]; more than 22.7 µM in [4]; more than 25 µM in experiment [5]; more than 25 µM in [6]. Moreover, the GI50 in experiment [7] is more than 25 µM; in experiment [8] it was more than 17.8 µM; in experiment [9] it was 20.3 µM; in experiment [10], more than 25 µM. Besides, the TGI in experiment [1], in [2], in [3], in experiment [4], in experiment [5] and in [6] was more than 25 µM throughout. Also, the TGI in experiment [7], in experiment [8], in [9] and in [10] was more than 25 µM each time.

Take `CCCCCCCC(=O)OC[n+]1cccc(-c2c(COC(=O)NC(C)C)c(COC(=O)NC(C)C)c3n2CCC3)c1`: the TGI in experiment [1], in experiment [2], in experiment [3], in experiment [4], in experiment [5] and in experiment [6] was more than 100 µM each time. Moreover, the TGI in experiment [7], in experiment [8], in experiment [9] and in experiment [10] was more than 100 µM throughout.

As for `COc1ccc2cc1Oc1ccc(cc1)CC1c3c(cc(OC)c4c3Oc3cc5c(cc3O4)CCNC5C2)CCN1C` (stereo not drawn), the GI50 in experiment [1] was 1.74 µM; in experiment [2] it was 1.73 µM; in [5], 1.82 µM; in experiment [6] it was 1.61 µM; in experiment [8], 0.626 µM; in experiment [10], 1.9 µM. The TGI in experiment [1] was 15.5 µM and 3.11 µM; in experiment [2], 6.83 µM and 3.25 µM; in experiment [3], 3.38 µM; in experiment [4], 3.72 µM and 3.23 µM; in [5], 3.89 µM and 3.3 µM; in experiment [6], 6.16 µM and 3.13 µM. Further, the TGI was 4.07 µM in experiment [7]; 1.91 µM in [8]; 3.22 µM in experiment [9]; 3.14 µM and 3.5 µM in experiment [10].

Take `Nc1c([N+](=O)[O-])ncn1C1OC(CO)C(O)C1O` (stereo not drawn): the GI50 in experiment [1], in [2], in experiment [3], in [4], in experiment [5] and in experiment [6] was more than 100 µM each time. In addition, the GI50 in [7], in experiment [8], in experiment [9] and in experiment [10] was more than 100 µM throughout. For the same compound, the TGI in [1], in [2], in [3], in experiment [4], in experiment [5] and in [6] was more than 100 µM each time. Besides, the TGI in experiment [7], in experiment [8], in [9] and in [10] was more than 100 µM each time.

As for `CC(=O)O[C@H]1C(=O)[C@@]2(C)C([C@H](OC(=O)c3ccccc3)[C@]3(O)C[C@H](OC(=O)[C@H](O)[C@@H](NC(=O)c4ccc(Cl)cc4)c4ccccc4)C(C)=C1C3(C)C)C1(OC(C)=O)CO[C@@H]1C[C@@H]2O` (stereo partly drawn), the TGI is 13.7 µM and 36.7 µM in experiment [1]; 0.733 µM in experiment [2]; 25 µM in experiment [3]; 0.217 µM in experiment [4]; 25 µM and 83.2 µM in experiment [5]; 25 µM and 68 µM in experiment [6]. The TGI in [7] is 25 µM and > 100 µM; in experiment [8], 10.4 µM; in experiment [9], 49.6 µM; in experiment [10], 25 µM and 36.8 µM. Moreover, the GI50 in [5] is 0.0166 µM; in [6], 4.89 µM; in experiment [7] it was 0.0219 µM; in [10], 0.013 µM.

Take `O=[N+]([O-])/C(=C/C=C/c1ccccc1)c1ccccc1`: the GI50 is 12 µM in experiment [1]; 2.02 µM in experiment [2]; 1.48 µM in [3]; 1.88 µM in experiment [4]; 1.85 µM in experiment [5]; 2.47 µM in experiment [6]. Moreover, the GI50 was 2.41 µM in [7], 3.23 µM in [8], 1.67 µM in experiment [9] and 2.74 µM in experiment [10]. For the same compound, the TGI in [1] is 24.4 µM; in experiment [2], 5.31 µM; in experiment [3], 4.23 µM; in experiment [4] it was 4.29 µM; in experiment [5] it was 4.03 µM; in [6] it was 7.22 µM. In addition, the TGI in experiment [7] was 6.79 µM; in [8] it was 7.18 µM; in experiment [9] it was 3.29 µM; in experiment [10], 9.32 µM.

In the case of `Nc1nc2c([nH]1)c1[nH]c3ccccc3c1c1[nH]c3ccccc3c21`, the GI50 in experiment [1] was 16.2 µM; in [2] it was 14.4 µM; in [3], 4.47 µM; in [4], 11 µM; in experiment [5] it was 15.3 µM; in [6], 15.4 µM. In addition, the GI50 in experiment [7] was 17.1 µM; in experiment [8] it was 5.5 µM; in experiment [9] it was 16 µM; in experiment [10], 18.5 µM. Besides, the TGI came out at 29.7 µM in experiment [1]; 27.8 µM in [2]; 21.1 µM in [3]; 23.1 µM in [4]; 29.7 µM in experiment [5]; 35.3 µM in [6]. Also, the TGI in [7] was found to be 33.4 µM; in experiment [8], 17.4 µM; in [9], 32.5 µM; in [10], 33.4 µM.

On to `COc1ccc(-c2nc3sccn3c2/C=C/C(=O)c2cc(OC)c(OC)c(OC)c2)cc1`, for which the GI50 is 3.13 µM in experiment [1]; 2.52 µM in experiment [2]; 1.85 µM in [3]; 2.97 µM in [4]; 3 µM in experiment [5]; 3.21 µM in [6]. The GI50 was 2.92 µM in [7], 3.22 µM in [8], 2.11 µM in experiment [9] and 15.2 µM in [10]. Also, the TGI in experiment [1] is 24.6 µM; in [2], more than 27.6 µM; in [3] it was more than 100 µM; in experiment [4], more than 38.7 µM; in [5], more than 100 µM; in experiment [6], more than 100 µM. In addition, the TGI in [7] is more than 22.9 µM; in experiment [8], 11.8 µM; in [9], 6.59 µM; in [10], 78.7 µM.

As to `CCCCCCC1CCCCN1C(c1ccccc1)C(O)c1ccccc1` (stereo not drawn), the GI50 is 12.2 µM in [1]; 2.95 µM in experiment [2]; 3.78 µM in [3]; 6.93 µM in experiment [4]; 6.5 µM in [5]; 7.98 µM in [6]. Moreover, the GI50 was 7.62 µM in experiment [7], 3.09 µM in experiment [8], 3.04 µM in experiment [9] and 4.79 µM in [10]. Moreover, the TGI in [1] stood at 25.1 µM; in experiment [2], 11.4 µM; in experiment [3], 14.8 µM; in experiment [4], 20.6 µM; in [5], 20.3 µM; in [6], 21.7 µM. Moreover, the TGI is 21.4 µM in [7], 12.2 µM in experiment [8], 12.4 µM in [9] and 18.1 µM in experiment [10].

`Clc1cc(Cl)cc(Nc2ccc3c(OCCCN4CCOCC4)cccc3n2)c1`: the GI50 is 2.78 µM in experiment [1]; 1.86 µM in experiment [2]; 1.74 µM in experiment [3]; 1.94 µM in experiment [4]; 10.8 µM in experiment [5]; 10.3 µM in experiment [6]. For the same compound, the GI50 in experiment [7] was 2.6 µM; in [8] it was 1.76 µM; in experiment [9], 1.72 µM; in [10], 2.05 µM. Also, the TGI in experiment [1] came out at 8.55 µM; in experiment [2], 4 µM; in experiment [3], 3.48 µM; in experiment [4], 4.69 µM; in experiment [5], 26.8 µM; in [6], 22.2 µM. Also, the TGI is 6.87 µM in [7], 3.39 µM in [8], 3.24 µM in experiment [9] and 4.31 µM in experiment [10].
